Columns and labels:
Assay in all cases: relative viability (nuclei count vs DMSO), 5 days (fraction); higher = more cells survive
[1] = test system: HCC-15
Method in brief: (§1)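 Lung cancer cell lines in 1536-well plates got either a single drug or a fixed anchor-drug dose together with five library-drug doses (not always all listed) in √10 steps, by pin tool, on the day after seeding. Nuclei were counted after 5 days, and relative viability is the treated-to-vehicle ratio of nuclei counts. Values are medians of duplicate plates.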

[2] = test system: NCI-H1355
Method in brief: as §1

[3] = test system: NCI-H1755
Method in brief: as §1

[4] = test system: NCI-H647
Method in brief: as §1

[5] = test system: COR-L23
Method in brief: as §1

[6] = test system: NCI-H1734
Method in brief: as §1

[7] = test system: NCI-H1993
Method in brief: as §1

[8] = test system: NCI-H2347
Method in brief: as §1

[9] = test system: NCI-H838
Method in brief: as §1

[10] = test system: NCI-H1792
Method in brief: as §1

[11] = test system: UMC-11
Method in brief: as §1

[12] = test system: HARA
Method in brief: as §1

[13] = test system: HOP-62
Method in brief: as §1

[14] = test system: NCI-H2009
Method in brief: as §1

[15] = test system: NCI-H2228
Method in brief: as §1

[16] = test system: COR-L 105
Method in brief: as §1

[17] = test system: SK-MES-1
Method in brief: as §1

[18] = test system: NCI-H358
Method in brief: as §1

[19] = test system: NCI-H2170
Method in brief: as §1

[20] = test system: NCI-H1793
Method in brief: as §1

[21] = test system: NCI-H1395
Method in brief: as §1

## CCN(CC)CCCCNc1ncc2cc(-c3cc(OC)cc(OC)c3)c(NC(=O)NC(C)(C)C)nc2n1 + CC(C)C[C@H](NC(=O)[C@H](Cc1ccccc1)NC(=O)c1cnccn1)B(O)O [Bortezomib] (partner 0.002 µM)
[1]; first compound 0.01 µM
  relative viability: 1.24
[1]; first compound 0.03162 µM
  relative viability: 1.06
[1]; first compound 0.1 µM
  relative viability: 1.06
[1]; first compound 0.3162 µM
  relative viability: 1.19
[1]; first compound 1 µM
  relative viability: 0.936
[2]; first compound 0.01 µM
  relative viability: 1.23
[2]; first compound 0.03162 µM
  relative viability: 1.25
[2]; first compound 0.1 µM
  relative viability: 1.29
[2]; first compound 0.3162 µM
  relative viability: 1.41
[2]; first compound 1 µM
  relative viability: 1.13
[3]; first compound 0.01 µM
  relative viability: 0.977
[3]; first compound 0.03162 µM
  relative viability: 0.992
[3]; first compound 0.1 µM
  relative viability: 1.01
[3]; first compound 0.3162 µM
  relative viability: 1.07
[3]; first compound 1 µM
  relative viability: 0.936
[4]; first compound 0.01 µM
  relative viability: 1.02
[4]; first compound 0.03162 µM
  relative viability: 0.996
[4]; first compound 0.1 µM
  relative viability: 1.6
[4]; first compound 0.3162 µM
  relative viability: 1.08
[4]; first compound 1 µM
  relative viability: 1.07
[5]; first compound 0.01 µM
  relative viability: 1.19
[5]; first compound 0.03162 µM
  relative viability: 1.3
[5]; first compound 0.1 µM
  relative viability: 1.13
[5]; first compound 0.3162 µM
  relative viability: 1.13
[5]; first compound 1 µM
  relative viability: 1.01
[6]; first compound 0.01 µM
  relative viability: 0.941
[6]; first compound 0.03162 µM
  relative viability: 0.901
[6]; first compound 0.1 µM
  relative viability: 1.11
[6]; first compound 0.3162 µM
  relative viability: 1.11
[6]; first compound 1 µM
  relative viability: 0.874
[7]; first compound 0.01 µM
  relative viability: 1
[7]; first compound 0.03162 µM
  relative viability: 0.981
[7]; first compound 0.1 µM
  relative viability: 1.26
[7]; first compound 0.3162 µM
  relative viability: 1.41
[7]; first compound 1 µM
  relative viability: 1.11
[8]; first compound 0.01 µM
  relative viability: 0.855
[8]; first compound 0.03162 µM
  relative viability: 0.864
[8]; first compound 0.1 µM
  relative viability: 1.2
[8]; first compound 0.3162 µM
  relative viability: 1.16
[8]; first compound 1 µM
  relative viability: 0.639
[9]; first compound 0.01 µM
  relative viability: 0.793
[9]; first compound 0.03162 µM
  relative viability: 0.732
[9]; first compound 0.1 µM
  relative viability: 0.96
[9]; first compound 0.3162 µM
  relative viability: 0.9
[9]; first compound 1 µM
  relative viability: 0.579
[10]; first compound 0.01 µM
  relative viability: 1.05
[10]; first compound 0.03162 µM
  relative viability: 1.05
[10]; first compound 0.1 µM
  relative viability: 0.924
[10]; first compound 0.3162 µM
  relative viability: 1.38
[10]; first compound 1 µM
  relative viability: 0.689
[11]; first compound 0.01 µM
  relative viability: 0.702
[11]; first compound 0.03162 µM
  relative viability: 0.722
[11]; first compound 0.1 µM
  relative viability: 0.73
[11]; first compound 0.3162 µM
  relative viability: 0.945
[11]; first compound 1 µM
  relative viability: 0.544
[12]; first compound 0.01 µM
  relative viability: 1.19
[12]; first compound 0.03162 µM
  relative viability: 1.12
[12]; first compound 0.1 µM
  relative viability: 1.26
[12]; first compound 0.3162 µM
  relative viability: 1.04
[12]; first compound 1 µM
  relative viability: 0.882
[13]; first compound 0.01 µM
  relative viability: 0.726
[13]; first compound 0.03162 µM
  relative viability: 0.888
[13]; first compound 0.1 µM
  relative viability: 0.728
[13]; first compound 0.3162 µM
  relative viability: 0.717
[13]; first compound 1 µM
  relative viability: 0.79
[14]; first compound 0.01 µM
  relative viability: 0.958
[14]; first compound 0.03162 µM
  relative viability: 1.06
[14]; first compound 0.1 µM
  relative viability: 1.1
[14]; first compound 0.3162 µM
  relative viability: 1.07
[14]; first compound 1 µM
  relative viability: 0.966
[15]; first compound 0.01 µM
  relative viability: 0.874
[15]; first compound 0.03162 µM
  relative viability: 0.997
[15]; first compound 0.1 µM
  relative viability: 1.24
[15]; first compound 0.3162 µM
  relative viability: 1.11
[15]; first compound 1 µM
  relative viability: 1.02
[16]; first compound 0.01 µM
  relative viability: 0.691
[16]; first compound 0.03162 µM
  relative viability: 0.824
[16]; first compound 0.1 µM
  relative viability: 0.859
[16]; first compound 0.3162 µM
  relative viability: 0.968
[16]; first compound 1 µM
  relative viability: 0.732

## O=c1cc(N2CCOCC2)oc2c(-c3cccc4c3sc3ccccc34)cccc12 + COc1cc2c(Oc3ccc(NC(=O)C4(C(=O)Nc5ccc(F)cc5)CC4)cc3F)ccnc2cc1OCCCN1CCOCC1 [Foretinib] (partner 0.25 µM)
[1]; first compound 0.01 µM
  relative viability: 1.01
[1]; first compound 0.03162 µM
  relative viability: 1.09
[1]; first compound 0.1 µM
  relative viability: 1.09
[1]; first compound 0.3162 µM
  relative viability: 0.989
[1]; first compound 1 µM
  relative viability: 0.971
[2]; first compound 0.01 µM
  relative viability: 0.962
[2]; first compound 0.03162 µM
  relative viability: 1.01
[2]; first compound 0.1 µM
  relative viability: 0.952
[2]; first compound 0.3162 µM
  relative viability: 0.986
[2]; first compound 1 µM
  relative viability: 0.917
[3]; first compound 0.01 µM
  relative viability: 0.899
[3]; first compound 0.03162 µM
  relative viability: 0.952
[3]; first compound 0.1 µM
  relative viability: 0.959
[3]; first compound 0.3162 µM
  relative viability: 0.926
[3]; first compound 1 µM
  relative viability: 0.934
[4]; first compound 0.01 µM
  relative viability: 1.24
[4]; first compound 0.03162 µM
  relative viability: 1.34
[4]; first compound 0.1 µM
  relative viability: 1.34
[4]; first compound 0.3162 µM
  relative viability: 1.24
[4]; first compound 1 µM
  relative viability: 1.08
[5]; first compound 0.01 µM
  relative viability: 1.03
[5]; first compound 0.03162 µM
  relative viability: 0.996
[5]; first compound 0.1 µM
  relative viability: 0.954
[5]; first compound 0.3162 µM
  relative viability: 0.923
[5]; first compound 1 µM
  relative viability: 1.06
[17]; first compound 0.01 µM
  relative viability: 1.13
[17]; first compound 0.03162 µM
  relative viability: 0.771
[17]; first compound 0.1 µM
  relative viability: 0.847
[17]; first compound 0.3162 µM
  relative viability: 0.968
[17]; first compound 1 µM
  relative viability: 0.91
[6]; first compound 0.01 µM
  relative viability: 0.851
[6]; first compound 0.03162 µM
  relative viability: 1.03
[6]; first compound 0.1 µM
  relative viability: 0.894
[6]; first compound 0.3162 µM
  relative viability: 0.837
[6]; first compound 1 µM
  relative viability: 0.78
[7]; first compound 0.01 µM
  relative viability: 0.681
[7]; first compound 0.03162 µM
  relative viability: 0.845
[7]; first compound 0.1 µM
  relative viability: 0.878
[7]; first compound 0.3162 µM
  relative viability: 0.765
[7]; first compound 1 µM
  relative viability: 0.748
[8]; first compound 0.01 µM
  relative viability: 0.963
[8]; first compound 0.03162 µM
  relative viability: 0.761
[8]; first compound 0.1 µM
  relative viability: 0.675
[8]; first compound 0.3162 µM
  relative viability: 0.855
[8]; first compound 1 µM
  relative viability: 1.05
[9]; first compound 0.01 µM
  relative viability: 0.987
[9]; first compound 0.03162 µM
  relative viability: 1.02
[9]; first compound 0.1 µM
  relative viability: 1.12
[9]; first compound 0.3162 µM
  relative viability: 0.958
[9]; first compound 1 µM
  relative viability: 0.997
[11]; first compound 0.01 µM
  relative viability: 1
[11]; first compound 0.03162 µM
  relative viability: 1.08
[11]; first compound 0.1 µM
  relative viability: 1.03
[11]; first compound 0.3162 µM
  relative viability: 1.01
[11]; first compound 1 µM
  relative viability: 0.91
[18]; first compound 0.01 µM
  relative viability: 0.647
[18]; first compound 0.03162 µM
  relative viability: 0.7
[18]; first compound 0.1 µM
  relative viability: 0.667
[18]; first compound 0.3162 µM
  relative viability: 0.741
[18]; first compound 1 µM
  relative viability: 0.774
[12]; first compound 0.01 µM
  relative viability: 0.768
[12]; first compound 0.03162 µM
  relative viability: 0.897
[12]; first compound 0.1 µM
  relative viability: 0.857
[12]; first compound 0.3162 µM
  relative viability: 0.864
[12]; first compound 1 µM
  relative viability: 0.903
[19]; first compound 0.01 µM
  relative viability: 0.968
[19]; first compound 0.03162 µM
  relative viability: 0.542
[19]; first compound 0.1 µM
  relative viability: 1.03
[19]; first compound 0.3162 µM
  relative viability: 0.935
[19]; first compound 1 µM
  relative viability: 0.942
[13]; first compound 0.01 µM
  relative viability: 1.1
[13]; first compound 0.03162 µM
  relative viability: 1.17
[13]; first compound 0.1 µM
  relative viability: 1.11
[13]; first compound 0.3162 µM
  relative viability: 1.14
[13]; first compound 1 µM
  relative viability: 1.16
[14]; first compound 0.01 µM
  relative viability: 1.19
[14]; first compound 0.03162 µM
  relative viability: 1.21
[14]; first compound 0.1 µM
  relative viability: 1.23
[14]; first compound 0.3162 µM
  relative viability: 1.22
[14]; first compound 1 µM
  relative viability: 1.11
[20]; first compound 0.01 µM
  relative viability: 0.594
[20]; first compound 0.1 µM
  relative viability: 0.568
[20]; first compound 0.3162 µM
  relative viability: 0.685
[20]; first compound 1 µM
  relative viability: 0.486
[21]; first compound 0.01 µM
  relative viability: 0.995
[21]; first compound 0.03162 µM
  relative viability: 0.915
[21]; first compound 0.1 µM
  relative viability: 0.973
[21]; first compound 0.3162 µM
  relative viability: 1.17
[21]; first compound 1 µM
  relative viability: 0.986
[15]; first compound 0.01 µM
  relative viability: 0.864
[15]; first compound 0.03162 µM
  relative viability: 1.08
[15]; first compound 0.1 µM
  relative viability: 0.981
[15]; first compound 0.3162 µM
  relative viability: 0.89
[15]; first compound 1 µM
  relative viability: 0.9
[16]; first compound 0.01 µM
  relative viability: 0.986
[16]; first compound 0.03162 µM
  relative viability: 1.1
[16]; first compound 0.1 µM
  relative viability: 0.681
[16]; first compound 0.3162 µM
  relative viability: 1.04
[16]; first compound 1 µM
  relative viability: 1.21
